According to the CheMixHub viscosity set:
Where “and” joins values, the source holds several entries; their conditions need not be identical. Identical values can stand only once.

Assay: xn = mol fraction of the nth substance listed

CCCCOCCO + O
Settings	viscosity
293.15 K, 101 kPa, x1 = 0.00631	1.166 mPa·s
293.15 K, 101 kPa, x1 = 0.0131	1.391 mPa·s
293.15 K, 101 kPa, x1 = 0.01666	1.507 mPa·s
293.15 K, 101 kPa, x1 = 0.03452	2.102 mPa·s
294.15 K, 101 kPa, x1 = 0.00631	1.136 mPa·s
294.15 K, 101 kPa, x1 = 0.0131	1.352 mPa·s
295.15 K, 101 kPa, x1 = 0.00631	1.106 mPa·s
295.15 K, 101 kPa, x1 = 0.0131	1.315 mPa·s
295.15 K, 101 kPa, x1 = 0.01666	1.421 mPa·s
295.15 K, 101 kPa, x1 = 0.03452	1.979 mPa·s
296.15 K, 101 kPa, x1 = 0.00631	1.079 mPa·s
296.15 K, 101 kPa, x1 = 0.0131	1.279 mPa·s
297.15 K, 101 kPa, x1 = 0.00631	1.052 mPa·s
297.15 K, 101 kPa, x1 = 0.0131	1.245 mPa·s
297.15 K, 101 kPa, x1 = 0.01666	1.342 mPa·s
297.15 K, 101 kPa, x1 = 0.03452	1.868 mPa·s
298.15 K, 101 kPa, x1 = 0.00631	1.026 mPa·s
298.15 K, 101 kPa, x1 = 0.0131	1.212 mPa·s
299.15 K, 101 kPa, x1 = 0.00631	1.001 mPa·s
299.15 K, 101 kPa, x1 = 0.0131	1.18 mPa·s
299.15 K, 101 kPa, x1 = 0.01666	1.271 mPa·s
299.15 K, 101 kPa, x1 = 0.03452	1.766 mPa·s
300.15 K, 101 kPa, x1 = 0.00631	0.9782 mPa·s
300.15 K, 101 kPa, x1 = 0.0131	1.15 mPa·s
301.15 K, 101 kPa, x1 = 0.00631	0.9547 mPa·s
301.15 K, 101 kPa, x1 = 0.0131	1.121 mPa·s
301.15 K, 101 kPa, x1 = 0.01666	1.205 mPa·s
301.15 K, 101 kPa, x1 = 0.03452	1.675 mPa·s
302.15 K, 101 kPa, x1 = 0.00631	0.9328 mPa·s
302.15 K, 101 kPa, x1 = 0.0131	1.092 mPa·s
303.15 K, 101 kPa, x1 = 0.00631	0.9113 mPa·s
303.15 K, 101 kPa, x1 = 0.0131	1.066 mPa·s
303.15 K, 101 kPa, x1 = 0.01666	1.144 mPa·s
303.15 K, 101 kPa, x1 = 0.03452	1.592 mPa·s
304.15 K, 101 kPa, x1 = 0.00631	0.891 mPa·s
304.15 K, 101 kPa, x1 = 0.0131	1.04 mPa·s
305.15 K, 101 kPa, x1 = 0.00631	0.8711 mPa·s
305.15 K, 101 kPa, x1 = 0.0131	1.015 mPa·s
305.15 K, 101 kPa, x1 = 0.01666	1.089 mPa·s
305.15 K, 101 kPa, x1 = 0.03452	1.515 mPa·s
306.15 K, 101 kPa, x1 = 0.00631	0.8521 mPa·s
306.15 K, 101 kPa, x1 = 0.0131	0.9916 mPa·s
307.15 K, 101 kPa, x1 = 0.00631	0.8342 mPa·s
307.15 K, 101 kPa, x1 = 0.0131	0.9686 mPa·s
307.15 K, 101 kPa, x1 = 0.01666	1.038 mPa·s
307.15 K, 101 kPa, x1 = 0.03452	1.445 mPa·s
308.15 K, 101 kPa, x1 = 0.00631	0.8158 mPa·s
308.15 K, 101 kPa, x1 = 0.0131	0.9465 mPa·s
308.15 K, 101 kPa, x1 = 0.037	1.465 mPa·s and 1.465 mPa·s
308.15 K, 101.33 kPa, x2 = 0.3047	2.388 mPa·s
308.15 K, 101.33 kPa, x2 = 0.4017	2.477 mPa·s
308.15 K, 101.33 kPa, x2 = 0.4974	2.624 mPa·s
308.15 K, 101.33 kPa, x2 = 0.5973	2.835 mPa·s
308.15 K, 101.33 kPa, x2 = 0.697	2.955 mPa·s
308.15 K, 101.33 kPa, x2 = 0.8047	2.873 mPa·s
308.15 K, 101.33 kPa, x2 = 0.8972	2.245 mPa·s
308.15 K, 101.33 kPa, x2 = 0.9497	1.576 mPa·s
309.15 K, 101 kPa, x1 = 0.00631	0.799 mPa·s
309.15 K, 101 kPa, x1 = 0.0131	0.9251 mPa·s
309.15 K, 101 kPa, x1 = 0.01666	0.9913 mPa·s
309.15 K, 101 kPa, x1 = 0.03452	1.381 mPa·s
310.15 K, 101 kPa, x1 = 0.00631	0.7823 mPa·s
310.15 K, 101 kPa, x1 = 0.0131	0.9045 mPa·s
311.15 K, 101 kPa, x1 = 0.00631	0.7663 mPa·s
311.15 K, 101 kPa, x1 = 0.0131	0.8847 mPa·s
311.15 K, 101 kPa, x1 = 0.01666	0.9476 mPa·s
311.15 K, 101 kPa, x1 = 0.03452	1.322 mPa·s
312.15 K, 101 kPa, x1 = 0.00631	0.7507 mPa·s
312.15 K, 101 kPa, x1 = 0.0131	0.8657 mPa·s
313.15 K, 101 kPa, x1 = 0.00631	0.7357 mPa·s
313.15 K, 101 kPa, x1 = 0.0131	0.8474 mPa·s
313.15 K, 101 kPa, x1 = 0.01666	0.907 mPa·s
313.15 K, 101 kPa, x1 = 0.03452	1.268 mPa·s
313.15 K, 101 kPa, x1 = 0.6	2.465 mPa·s
314.15 K, 101 kPa, x1 = 0.00631	0.7211 mPa·s
314.15 K, 101 kPa, x1 = 0.0131	0.8294 mPa·s
315.15 K, 101 kPa, x1 = 0.00631	0.7073 mPa·s
315.15 K, 101 kPa, x1 = 0.0131	0.8121 mPa·s
315.15 K, 101 kPa, x1 = 0.01666	0.8696 mPa·s
315.15 K, 101 kPa, x1 = 0.03452	1.218 mPa·s
316.15 K, 101 kPa, x1 = 0.00631	0.6935 mPa·s
316.15 K, 101 kPa, x1 = 0.0131	0.7957 mPa·s
317.15 K, 101 kPa, x1 = 0.00631	0.6799 mPa·s
317.15 K, 101 kPa, x1 = 0.0131	0.7795 mPa·s
317.15 K, 101 kPa, x1 = 0.01666	0.8346 mPa·s
317.15 K, 101 kPa, x1 = 0.03452	1.173 mPa·s
318.15 K, 101 kPa, x1 = 0.00631	0.6676 mPa·s
318.15 K, 101 kPa, x1 = 0.0131	0.764 mPa·s
318.15 K, 101 kPa, x1 = 0.03452	1.151 mPa·s
319.15 K, 101 kPa, x1 = 0.00631	0.6552 mPa·s
319.15 K, 101 kPa, x1 = 0.0131	0.7487 mPa·s
319.15 K, 101 kPa, x1 = 0.01666	0.8021 mPa·s
319.15 K, 101 kPa, x1 = 0.03452	1.131 mPa·s
320.15 K, 101 kPa, x1 = 0.00631	0.6431 mPa·s
320.15 K, 101 kPa, x1 = 0.0131	0.7347 mPa·s
320.15 K, 101 kPa, x1 = 0.03452	1.113 mPa·s
320.65 K, 101 kPa, x1 = 0.03452	1.104 mPa·s
321.15 K, 101 kPa, x1 = 0.00631	0.6313 mPa·s
321.15 K, 101 kPa, x1 = 0.0131	0.7202 mPa·s
321.15 K, 101 kPa, x1 = 0.01666	0.7716 mPa·s
321.15 K, 101 kPa, x1 = 0.03452	1.096 mPa·s
321.65 K, 101 kPa, x1 = 0.03452	1.088 mPa·s
322.15 K, 101 kPa, x1 = 0.00631	0.6205 mPa·s
322.15 K, 101 kPa, x1 = 0.0131	0.7065 mPa·s
323.15 K, 101 kPa, x1 = 0.00631	0.6094 mPa·s
323.15 K, 101 kPa, x1 = 0.0131	0.6934 mPa·s
323.15 K, 101 kPa, x1 = 0.01666	0.743 mPa·s
